{"source": "paper PMC9653409", "about": "“Generative deep learning enables the discovery of a potent and selective RIPK1 inhibitor” (Nature Communications, 2022)", "assay_in_all_cases": "Kinase inhibitory activity profiling of RI-962@10 µM (406 kinases, Eurofins)", "assay_type_in_all_cases": "biochemical", "key": {"[1]": {"biological_target": "panel of human kinases (kinase named in endpoint) (Homo sapiens, UniProt P17252)", "conditions": "10 µM; read-out: Activity (%), PKCα(h)", "method_in_brief": "(§1)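 Radiometric filter-binding kinase assays: enzyme preincubated 15 min with compound in 8 mM MOPS pH 7.0, 0.2 mM EDTA, 250 μM peptide substrate, 10 mM magnesium acetate, 10 μM [γ-33P]-ATP. Reaction started with Mg/ATP, run 40 min at room temperature, stopped with phosphoric acid; 33P incorporation read by scintillation counting. Other kinases by similar protocols.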"}, "[2]": {"biological_target": "panel of human kinases (kinase named in endpoint) (Homo sapiens, UniProt Q13535)", "conditions": "10 µM; read-out: Activity (%), ATR/ATRIP(h)", "method_in_brief": "as §1"}, "[3]": {"biological_target": "panel of human kinases (kinase named in endpoint) (Homo sapiens, UniProt P16234)", "conditions": "10 µM; read-out: Activity (%), PDGFRα(h)", "method_in_brief": "as §1"}, "[4]": {"biological_target": "panel of human kinases (kinase named in endpoint) (Homo sapiens, UniProt Q16512)", "conditions": "10 µM; read-out: Activity (%), PRK1(h)", "method_in_brief": "as §1"}, "[5]": {"biological_target": "panel of human kinases (kinase named in endpoint) (Homo sapiens, UniProt Q9Y6E0)", "conditions": "10 µM; read-out: Activity (%), MST3(h)", "method_in_brief": "as §1"}, "[6]": {"biological_target": "panel of human kinases (kinase named in endpoint) (Homo sapiens, UniProt P48736)", "conditions": "10 µM; read-out: Activity (%), PI3 Kinase (p120g)(h)", "method_in_brief": "as §1"}, "[7]": {"biological_target": "panel of human kinases (kinase named in endpoint) (Homo sapiens, UniProt P07949)", "sequence (P07949 29-1114)": "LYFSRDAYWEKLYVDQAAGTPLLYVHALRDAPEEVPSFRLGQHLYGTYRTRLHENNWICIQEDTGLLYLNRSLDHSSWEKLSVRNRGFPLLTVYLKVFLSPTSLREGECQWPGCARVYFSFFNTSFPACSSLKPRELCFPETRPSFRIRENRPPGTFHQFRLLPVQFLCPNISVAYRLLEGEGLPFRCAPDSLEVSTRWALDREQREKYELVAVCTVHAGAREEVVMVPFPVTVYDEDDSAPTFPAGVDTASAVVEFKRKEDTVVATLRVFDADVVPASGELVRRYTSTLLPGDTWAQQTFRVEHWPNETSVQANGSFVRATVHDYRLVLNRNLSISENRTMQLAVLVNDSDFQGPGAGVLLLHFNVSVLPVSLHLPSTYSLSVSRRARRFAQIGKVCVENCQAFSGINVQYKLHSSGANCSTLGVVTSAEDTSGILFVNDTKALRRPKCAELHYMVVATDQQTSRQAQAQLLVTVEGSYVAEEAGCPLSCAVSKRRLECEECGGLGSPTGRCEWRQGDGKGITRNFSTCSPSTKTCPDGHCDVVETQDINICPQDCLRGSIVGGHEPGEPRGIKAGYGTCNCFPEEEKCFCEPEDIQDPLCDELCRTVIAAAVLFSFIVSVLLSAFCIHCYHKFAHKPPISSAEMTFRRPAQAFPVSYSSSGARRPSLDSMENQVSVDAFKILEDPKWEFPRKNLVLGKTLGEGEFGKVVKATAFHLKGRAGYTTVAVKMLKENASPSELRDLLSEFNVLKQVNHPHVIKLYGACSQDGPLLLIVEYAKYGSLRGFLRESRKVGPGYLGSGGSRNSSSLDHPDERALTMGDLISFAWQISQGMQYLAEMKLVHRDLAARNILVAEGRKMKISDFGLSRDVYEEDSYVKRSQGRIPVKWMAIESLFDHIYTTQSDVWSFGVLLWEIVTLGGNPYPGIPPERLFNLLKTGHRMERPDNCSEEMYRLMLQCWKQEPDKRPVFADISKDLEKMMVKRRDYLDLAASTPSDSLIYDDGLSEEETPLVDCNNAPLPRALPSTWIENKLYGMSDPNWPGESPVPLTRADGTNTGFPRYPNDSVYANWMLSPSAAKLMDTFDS", "conditions": "10 µM; read-out: Activity (%), Ret(h)", "method_in_brief": "as §1"}, "[8]": {"biological_target": "panel of human kinases (kinase named in endpoint) (Homo sapiens, UniProt Q9UK32)", "conditions": "10 µM; read-out: Activity (%), Rsk4(h)", "method_in_brief": "as §1"}, "[9]": {"biological_target": "panel of human kinases (kinase named in endpoint) (Homo sapiens, UniProt P29322)", "conditions": "10 µM; read-out: Activity (%), EphA8(h)", "method_in_brief": "as §1"}, "[10]": {"biological_target": "panel of human kinases (kinase named in endpoint) (Homo sapiens, UniProt Q13882)", "conditions": "10 µM; read-out: Activity (%), BRK(h)", "method_in_brief": "as §1"}, "[11]": {"biological_target": "panel of human kinases (kinase named in endpoint) (Homo sapiens, UniProt Q96J92)", "conditions": "10 µM; read-out: Activity (%), WNK4(h)", "method_in_brief": "as §1"}, "[12]": {"biological_target": "panel of human kinases (kinase named in endpoint) (Homo sapiens, UniProt P09769)", "sequence (P09769 whole entry)": "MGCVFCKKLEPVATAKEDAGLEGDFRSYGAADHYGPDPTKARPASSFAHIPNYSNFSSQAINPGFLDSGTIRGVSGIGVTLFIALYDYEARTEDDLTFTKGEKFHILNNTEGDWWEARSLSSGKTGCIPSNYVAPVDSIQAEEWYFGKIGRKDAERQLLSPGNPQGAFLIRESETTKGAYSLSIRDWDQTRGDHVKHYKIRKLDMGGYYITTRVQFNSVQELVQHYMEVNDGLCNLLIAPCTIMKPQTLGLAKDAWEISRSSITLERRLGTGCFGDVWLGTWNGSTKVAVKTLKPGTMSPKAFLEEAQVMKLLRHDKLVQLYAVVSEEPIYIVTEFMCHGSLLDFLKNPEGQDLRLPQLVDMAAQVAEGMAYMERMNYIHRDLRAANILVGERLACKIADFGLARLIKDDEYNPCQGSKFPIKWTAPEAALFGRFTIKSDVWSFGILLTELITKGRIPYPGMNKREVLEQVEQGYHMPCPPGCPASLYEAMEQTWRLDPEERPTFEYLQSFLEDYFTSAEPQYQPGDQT", "conditions": "10 µM; read-out: Activity (%), Fgr(h)", "method_in_brief": "as §1"}, "[13]": {"biological_target": "panel of human kinases (kinase named in endpoint) (Homo sapiens, UniProt Q06418)", "sequence (Q06418 41-890)": "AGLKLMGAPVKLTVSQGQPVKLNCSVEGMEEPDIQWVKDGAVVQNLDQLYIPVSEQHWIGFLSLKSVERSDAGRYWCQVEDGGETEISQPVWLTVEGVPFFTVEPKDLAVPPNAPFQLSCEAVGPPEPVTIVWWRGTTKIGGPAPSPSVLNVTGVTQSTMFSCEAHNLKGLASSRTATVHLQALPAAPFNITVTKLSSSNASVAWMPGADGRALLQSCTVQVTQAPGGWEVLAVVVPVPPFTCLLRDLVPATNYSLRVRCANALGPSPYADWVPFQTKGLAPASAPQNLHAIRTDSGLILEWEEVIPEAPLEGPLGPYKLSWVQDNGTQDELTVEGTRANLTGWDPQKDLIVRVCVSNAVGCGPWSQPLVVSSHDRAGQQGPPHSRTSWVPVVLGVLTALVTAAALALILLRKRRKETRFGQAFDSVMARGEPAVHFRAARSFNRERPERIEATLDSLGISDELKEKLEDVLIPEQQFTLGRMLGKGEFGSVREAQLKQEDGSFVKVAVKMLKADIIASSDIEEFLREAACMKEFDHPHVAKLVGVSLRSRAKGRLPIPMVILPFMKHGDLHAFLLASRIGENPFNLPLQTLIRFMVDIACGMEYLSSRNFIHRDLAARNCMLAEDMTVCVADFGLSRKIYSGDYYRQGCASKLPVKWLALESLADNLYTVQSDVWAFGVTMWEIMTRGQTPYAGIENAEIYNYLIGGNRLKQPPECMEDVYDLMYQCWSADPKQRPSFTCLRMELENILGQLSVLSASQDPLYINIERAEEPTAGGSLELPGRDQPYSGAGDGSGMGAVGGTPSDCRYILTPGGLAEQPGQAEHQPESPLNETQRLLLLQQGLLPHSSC", "conditions": "10 µM; read-out: Activity (%), Rse(h)", "method_in_brief": "as §1"}, "[14]": {"biological_target": "panel of human kinases (kinase named in endpoint) (Homo sapiens, UniProt O00141)", "conditions": "10 µM; read-out: Activity (%), SGK(h)", "method_in_brief": "as §1"}, "[15]": {"biological_target": "panel of human kinases (kinase named in endpoint) (Homo sapiens, UniProt Q00534)", "sequence (Q00534 whole entry)": "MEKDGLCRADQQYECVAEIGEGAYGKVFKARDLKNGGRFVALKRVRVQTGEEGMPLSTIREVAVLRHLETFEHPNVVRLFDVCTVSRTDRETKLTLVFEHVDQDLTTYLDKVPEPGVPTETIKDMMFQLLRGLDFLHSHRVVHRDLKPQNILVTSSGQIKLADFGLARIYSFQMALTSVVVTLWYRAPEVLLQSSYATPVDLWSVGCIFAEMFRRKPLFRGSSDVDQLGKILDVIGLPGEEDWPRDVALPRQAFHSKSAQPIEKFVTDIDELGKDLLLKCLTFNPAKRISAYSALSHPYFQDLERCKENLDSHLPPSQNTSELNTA", "conditions": "10 µM; read-out: Activity (%), CDK6/cyclinD3(h)", "method_in_brief": "as §1"}, "[16]": {"biological_target": "panel of human kinases (kinase named in endpoint) (Homo sapiens, UniProt O60331)", "conditions": "10 µM; read-out: Activity (%), PIP5K1g(h)", "method_in_brief": "as §1"}, "[17]": {"biological_target": "panel of human kinases (kinase named in endpoint) (Homo sapiens, UniProt P42684)", "conditions": "10 µM; read-out: Activity (%), Arg(h)", "method_in_brief": "as §1"}, "[18]": {"biological_target": "panel of human kinases (kinase named in endpoint) (Homo sapiens, UniProt P57059)", "conditions": "10 µM; read-out: Activity (%), SIK(h)", "method_in_brief": "as §1"}, "[19]": {"biological_target": "panel of human kinases (kinase named in endpoint) (Homo sapiens, UniProt Q02156)", "conditions": "10 µM; read-out: Activity (%), PKCε(h)", "method_in_brief": "as §1"}, "[20]": {"biological_target": "panel of human kinases (kinase named in endpoint) (Homo sapiens, UniProt P10721, V560G)", "conditions": "10 µM; read-out: Activity (%), cKit(V560G)(h)", "method_in_brief": "as §1"}, "[21]": {"biological_target": "panel of human kinases (kinase named in endpoint) (Homo sapiens, UniProt P43250)", "conditions": "10 µM; read-out: Activity (%), GRK6(h)", "method_in_brief": "as §1"}, "[22]": {"biological_target": "panel of human kinases (kinase named in endpoint) (Homo sapiens, UniProt P78527)", "conditions": "10 µM; read-out: Activity (%), DNA-PK(h)", "method_in_brief": "as §1"}, "[23]": {"biological_target": "panel of human kinases (kinase named in endpoint) (Homo sapiens, UniProt O14578)", "conditions": "10 µM; read-out: Activity (%), CRIK(h)", "method_in_brief": "as §1"}, "[24]": {"biological_target": "panel of human kinases (kinase named in endpoint) (Homo sapiens, UniProt Q9P1W9)", "conditions": "10 µM; read-out: Activity (%), Pim-2(h)", "method_in_brief": "as §1"}, "[25]": {"biological_target": "panel of human kinases (kinase named in endpoint) (Homo sapiens, UniProt P30530)", "sequence (P30530 26-894)": "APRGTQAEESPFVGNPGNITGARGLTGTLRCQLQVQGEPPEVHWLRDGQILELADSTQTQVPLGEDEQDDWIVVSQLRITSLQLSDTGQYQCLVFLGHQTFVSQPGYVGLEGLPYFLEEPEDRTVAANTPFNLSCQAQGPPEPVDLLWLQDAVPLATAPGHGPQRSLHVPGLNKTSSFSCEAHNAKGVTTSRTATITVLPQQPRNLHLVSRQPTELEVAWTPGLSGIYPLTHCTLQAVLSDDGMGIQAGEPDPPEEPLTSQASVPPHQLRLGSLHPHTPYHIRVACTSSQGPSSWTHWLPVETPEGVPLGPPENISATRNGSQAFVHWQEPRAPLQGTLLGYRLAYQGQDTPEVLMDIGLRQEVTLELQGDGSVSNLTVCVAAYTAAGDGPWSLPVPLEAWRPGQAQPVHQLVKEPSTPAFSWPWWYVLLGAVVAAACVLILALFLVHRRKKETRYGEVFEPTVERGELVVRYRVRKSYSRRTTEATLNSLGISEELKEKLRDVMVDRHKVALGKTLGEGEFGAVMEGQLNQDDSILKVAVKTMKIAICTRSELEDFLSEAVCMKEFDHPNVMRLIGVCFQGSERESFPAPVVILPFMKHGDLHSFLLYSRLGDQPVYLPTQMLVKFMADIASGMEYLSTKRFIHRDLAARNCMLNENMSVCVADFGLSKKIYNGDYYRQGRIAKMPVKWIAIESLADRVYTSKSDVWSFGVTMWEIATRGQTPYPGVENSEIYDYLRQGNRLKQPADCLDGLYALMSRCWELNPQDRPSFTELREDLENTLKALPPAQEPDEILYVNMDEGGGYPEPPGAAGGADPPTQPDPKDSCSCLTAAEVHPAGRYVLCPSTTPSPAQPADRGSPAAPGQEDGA", "conditions": "10 µM; read-out: Activity (%), Axl(h)", "method_in_brief": "as §1"}, "[26]": {"biological_target": "panel of human kinases (kinase named in endpoint) (Homo sapiens, UniProt Q9H3Y6)", "sequence (Q9H3Y6 whole entry)": "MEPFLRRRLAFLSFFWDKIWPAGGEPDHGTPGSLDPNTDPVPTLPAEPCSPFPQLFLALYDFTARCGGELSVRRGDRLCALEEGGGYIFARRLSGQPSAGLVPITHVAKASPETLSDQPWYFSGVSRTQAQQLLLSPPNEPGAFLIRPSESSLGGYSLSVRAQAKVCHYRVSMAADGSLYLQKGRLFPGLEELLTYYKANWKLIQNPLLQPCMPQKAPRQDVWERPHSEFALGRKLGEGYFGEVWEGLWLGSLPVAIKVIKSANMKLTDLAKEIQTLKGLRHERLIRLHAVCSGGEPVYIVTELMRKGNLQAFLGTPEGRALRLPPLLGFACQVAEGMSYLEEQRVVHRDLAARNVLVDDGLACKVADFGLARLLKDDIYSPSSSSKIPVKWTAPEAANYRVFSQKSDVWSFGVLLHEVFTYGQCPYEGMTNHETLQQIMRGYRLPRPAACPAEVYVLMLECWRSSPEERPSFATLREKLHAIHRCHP", "conditions": "10 µM; read-out: Activity (%), SRMS(h)", "method_in_brief": "as §1"}}, "data": [{"smiles": "CC(C)C(=O)Nc1nc2cc(-c3ccc4c(c3)c(C(=O)NC(C)c3ccccc3)cn4C)ccn2n1", "note": "(centres unmarked) [RI-962]", "values": [{"measurement": "activity at 10 µM", "setting": "[1]", "value": 97, "unit": "%"}, {"measurement": "activity at 10 µM", "setting": "[2]", "value": 108, "unit": "%"}, {"measurement": "activity at 10 µM", "setting": "[3]", "value": 99, "unit": "%"}, {"measurement": "activity at 10 µM", "setting": "[4]", "value": 109, "unit": "%"}, {"measurement": "activity at 10 µM", "setting": "[5]", "value": 149, "unit": "%"}, {"measurement": "activity at 10 µM", "setting": "[6]", "value": 80, "unit": "%"}, {"measurement": "activity at 10 µM", "setting": "[7]", "value": 114, "unit": "%"}, {"measurement": "activity at 10 µM", "setting": "[8]", "value": 61, "unit": "%"}, {"measurement": "activity at 10 µM", "setting": "[9]", "value": 88, "unit": "%"}, {"measurement": "activity at 10 µM", "setting": "[10]", "value": 101, "unit": "%"}, {"measurement": "activity at 10 µM", "setting": "[11]", "value": 80, "unit": "%"}, {"measurement": "activity at 10 µM", "setting": "[12]", "value": 96, "unit": "%"}, {"measurement": "activity at 10 µM", "setting": "[13]", "value": 108, "unit": "%"}, {"measurement": "activity at 10 µM", "setting": "[14]", "value": 85, "unit": "%"}, {"measurement": "activity at 10 µM", "setting": "[15]", "value": 92, "unit": "%"}, {"measurement": "activity at 10 µM", "setting": "[16]", "value": 98, "unit": "%"}, {"measurement": "activity at 10 µM", "setting": "[17]", "value": 106, "unit": "%"}, {"measurement": "activity at 10 µM", "setting": "[18]", "value": 137, "unit": "%"}, {"measurement": "activity at 10 µM", "setting": "[19]", "value": 99, "unit": "%"}, {"measurement": "activity at 10 µM", "setting": "[20]", "value": 95, "unit": "%"}, {"measurement": "activity at 10 µM", "setting": "[21]", "value": 108, "unit": "%"}, {"measurement": "activity at 10 µM", "setting": "[22]", "value": 100, "unit": "%"}, {"measurement": "activity at 10 µM", "setting": "[23]", "value": 101, "unit": "%"}, {"measurement": "activity at 10 µM", "setting": "[24]", "value": 97, "unit": "%"}, {"measurement": "activity at 10 µM", "setting": "[25]", "value": 110, "unit": "%"}, {"measurement": "activity at 10 µM", "setting": "[26]", "value": 101, "unit": "%"}]}]}
